Four compounds from ChEMBL document CHEMBL1121673, “Diuretic agents related to indapamide. 1. Synthesis and activity of 1-substituted 2-(4-chloro-3-sulfamoylbenzamido)isoindolines” (1981) can be followed below.

What all share (type): functional
The test system of assay [1] is Rattus norvegicus. The experiment in a line: Amount of sodium ions excreted during 4 hr after oral administration of 5 mg/kg of the test agent (protocol B) on 5 male and female rats.
Assay [2] deals with Rattus norvegicus. Description: Total volume of urine excreted during 4 hr after oral administration of 5 mg/kg of the test agent (protocol B) on 5 male and female rats.
A short description of assay [3]: Ratio of amount of Na+ excreted to amount of K+ excreted in urine of rat of protocol A-2 test.
Assay [4] in a line: Ratio of amount of Na+ excreted to amount of K+ excreted in urine of water-loaded rats.
The subject of assay [5] is Rattus norvegicus. Description: Total volume of urine excreted during 18 hours after single administration of 5 mg/kg of the test agent (protocol A-2) on 11 rats.
A short description of assay [6]: Ratio of amount of Na+ excreted to amount of K+ excreted in urine of rat of protocol A-1 test.
For assay [7], the system named is Rattus norvegicus. Description: Amount of sodium ions excreted during 18 hours after single administration of 5 mg/kg of the test agent (protocol A-2) on 11 rats.
For assay [8], the system named is Rattus norvegicus. Description: Total volume of urine excreted during 18 hours after single administration of 5 mg/kg of the test agent (protocol A-1) on 6 rats.
Assay [9] relates to Rattus norvegicus. The experiment in a line: Amount of potassium ions excreted during 18 hours after single administration of 5 mg/kg of the test agent (protocol A-1) on 6 rats.
Assay [10] has as its system Rattus norvegicus. The experiment in a line: Amount of potassium ions excreted during 18 hours after single administration of 5 mg/kg of the test agent (protocol A-2) on 11 rats.
Assay [11] has as its system Rattus norvegicus. The experiment in a line: Amount of potassium ions excreted during 4 hr after oral administration of 5 mg/kg of the test agent (protocol B) on 5 male and female rats.
The subject of assay [12] is Rattus norvegicus. Description: Amount of sodium ions excreted during 18 hours after single administration of 5 mg/kg of the test agent (protocol A-1) on 6 rats.
The test system of assay [13] is Rattus norvegicus. Description: Amount of potassium ions excreted during 18 hours after single administration of 5 mg/kg of the test agent (protocol A-2) on 6 rats.
The test system of assay [14] is Rattus norvegicus. The experiment in a line: Total volume of urine excreted during 18 hours after single administration of 5 mg/kg of the test agent (protocol A-2) on 6 rats.
Assay [15] relates to Rattus norvegicus. Description: Amount of sodium ions excreted during 18 hours after single administration of 5 mg/kg of the test agent (protocol A-2) on 6 rats.

Turning to `NS(=O)(=O)c1cc(C(=O)NN2Cc3ccccc3C2C(=O)O)ccc1Cl` (stereo not drawn), the “Urine Na+” value in the assay with Rattus norvegicus [1] turned out to be 0.109 m equiv; in the assay on Rattus norvegicus [7] it was 2.199 m equiv; in the assay on Rattus norvegicus [12], 1.59 m equiv. Besides, the Urine in the assay with Rattus norvegicus [2] is 87.1 mL; in the assay with Rattus norvegicus [5], 9.36 mL; in the assay on Rattus norvegicus [8], 9.36 mL. Moreover, the values for the Ratio in assay [3], in assay [4] and in assay [6] were 1.0809, 0.855 and 0.984, respectively. In addition, the results for the “Urine K+” value in the assay with Rattus norvegicus [9], in the assay on Rattus norvegicus [10] and with Rattus norvegicus [11] were 1.569 m equiv, 2.075 m equiv and 0.1305 m equiv, respectively.

`NS(=O)(=O)c1cc(C(=O)NN2Cc3ccccc3C2CO)ccc1Cl` (stereo not drawn): the “Urine Na+” value was 0.2629 m equiv with Rattus norvegicus [1], 1.414 m equiv in the assay with Rattus norvegicus [7] and 1.622 m equiv with Rattus norvegicus [12]. The Urine in the assay with Rattus norvegicus [2] was determined as 106 mL; in the assay on Rattus norvegicus [5], 11.45 mL; with Rattus norvegicus [8], 11.17 mL. Further, the Ratio in assay [3] amounted to 0.943; in assay [4], 1.638; in assay [6], 1.084. Also, the “Urine K+” value is recorded as 1.486 m equiv with Rattus norvegicus [9], 1.512 m equiv in the assay with Rattus norvegicus [10] and 0.1657 m equiv in the assay on Rattus norvegicus [11].

On to `CC1Cc2ccccc2N1NC(=O)c1ccc(Cl)c(S(N)(=O)=O)c1` (stereo not drawn) [INDAPAMIDE], for which the figures for the “Urine Na+” value in the assay with Rattus norvegicus [1], in the assay on Rattus norvegicus [12] and with Rattus norvegicus [15] were 0.705 m equiv, 2.563 m equiv and 2.947 m equiv, respectively. In addition, the Urine was 130.6 mL in the assay on Rattus norvegicus [2], 16.67 mL with Rattus norvegicus [14] and 12.83 mL in the assay with Rattus norvegicus [8]. Besides, the Ratio is recorded as 1.0526 in assay [3], 2.738 in assay [4] and 1.143 in assay [6]. Also, the “Urine K+” value in the assay with Rattus norvegicus [13] came out at 2.78 m equiv; in the assay with Rattus norvegicus [9] it was 2.198 m equiv; in the assay on Rattus norvegicus [11], 0.2686 m equiv.

On to `CC1c2ccccc2CN1NC(=O)c1ccc(Cl)c(S(N)(=O)=O)c1` (stereo not drawn) [ZIDAPAMIDE], for which the “Urine Na+” value worked out at 0.6927 m equiv in the assay with Rattus norvegicus [1], 2.193 m equiv in the assay with Rattus norvegicus [12] and 3.058 m equiv in the assay on Rattus norvegicus [15]. The Urine in the assay on Rattus norvegicus [2] turned out to be 127 mL; with Rattus norvegicus [14] it was 16.17 mL; in the assay on Rattus norvegicus [8], 11.67 mL. Further, the Ratio in assay [3] is 1.2204; in assay [4] it was 3.11; in [6], 1.128. The “Urine K+” value in the assay with Rattus norvegicus [13] was found to be 2.56 m equiv; with Rattus norvegicus [9], 1.976 m equiv; in the assay on Rattus norvegicus [11] it was 0.2398 m equiv.
